# From a melting point compilation (Tetko et al.; mined from patent text by program, amines drawn as free bases though some values may be those of a salt)
row,melting point [°C],SMILES
1,118 to 119,Cc1nc(N)c2nc(C)n(CCOCCCc3ccccc3)c2c1C
2,98 to 100,Cc1oc2c(C)c(C)c(OCc3ccccc3)c(C)c2c1CN1CCC[C@H]1CO
3,151 to 152,CCC(C)(C)OC(=O)NC(C)(Cc1c[nH]c2ccccc12)C(=O)NCCc1ccccn1 (configuration not stated)
4,277 to 279,NC(=O)c1cnc2c([N+](=O)[O-])cccc2c1Cl
5,178,CCC(NC(=NC#N)Nc1ccc(N)nc1)c1ccccc1 (configuration not stated)
6,90 to 91,Cc1nn(C)c2nc(-c3ccccc3)cc(N(C)C)c12
7,141 to 142,Oc1cc2ccccc2cc1OCCOc1ccccc1
8,245 to 247,COc1ccc(-c2ccc3nc(NC(=O)c4ccc(C(C)(C)C)cc4)cn3c2)cn1
9,152 to 154,COC(=O)Cc1c(C)n(-c2nc(OC)nc3ccccc23)c2ccc(OC)cc12
10,128 to 130,CCCn1c(=O)c(C(=O)OCC)c(O)c2ccc(C)nc21
11,296 to 301,O=C1C2=C(NC(=O)C3(N2)OCCO3)c2ccccc21
12,191,Cc1ccc(-c2ncccc2OC2SCC(O)C(O)C2O)o1 (configuration not stated)
13,265 to 270,CCOC(=O)c1cnc2c(C(=O)Nc3cc4cccnc4cc3OC)csc2c1
14,51 to 53,Cc1csc2ccc(CO)cc12
15,156 to 157,CCOc1nn(Cc2ccc(OCc3nc(-c4cccs4)oc3C)cc2)cc1CCC(=O)O
16,106 to 110,CC(C)(C)OC(=O)C[C@@H](NS(=O)(=O)c1ccc2c(Cl)cnc(Cl)c2c1)C(=O)OC(C)(C)C
17,143 to 144,CCOC(=O)c1cn(-c2ccc(Cl)cc2)c(-c2ccc(Cl)cc2Cl)n1
18,224,C#CCOc1cccc(-c2nc3cnncc3[nH]2)c1OC
19,210 to 212,O=C1CCC(N2C(=O)c3cccc(OCc4nc(CN5CCOCC5)cs4)c3C2=O)C(=O)N1 (configuration not stated)
20,119 to 127,O=C(NCCO)c1ccc(-c2nn(Cc3ccccc3)c3ccccc23)o1
21,174 to 175,COc1ccc(C(=O)Nc2ccccc2)cc1NC(=S)Nc1ccc(Cl)c(Cl)c1
22,115 to 116,CC(n1cncn1)C(O)(Cn1cncn1)c1ccc(F)cc1F (configuration not stated)
23,70 to 72,CC(=O)c1cccc(OCCCCCC(=O)O)c1
24,159 to 160,O=C(NCCO)c1cccc(-c2cccc3nn(Cc4ccccc4F)cc23)c1
25,162 to 164,COc1ccc2c(c1)c(Cc1cc(=O)n(-c3cccc(F)c3)[nH]1)c(C)n2C(=O)c1ccc(Cl)cc1
26,170 to 171,COC(=O)Cc1nc2cc(OC)c(OC)cc2c(-c2ccc(OC)c(OC)c2)c1C(=O)OC
27,> 250,O=c1[nH]cccc1-c1cccn2nc(Nc3ccc4ncccc4c3)nc12

# Further lines, the compound ahead of its results:
row,SMILES,melting point [°C]
1,COc1c([N+](=O)[O-])cc(C=O)c(Cl)c1OC(C)=O,84 to 85
2,COC(=O)c1cccc2c1c1c(O)c3c(cc1n2Cc1ccccc1)CCCC3,174 to 176
3,CCCCCCCCCCCCNc1ccnc(Cl)n1,80 to 82
4,NC(=O)c1ccccc1C(=O)NCCCN1CCC(c2noc3cc(F)ccc23)CC1,129 to 130
5,O=C1CC2(CCCC2)C(O)C(=O)N1CCCCN1CCN(c2ncccn2)CC1 (configuration not stated),110
6,O=S(=O)(N[C@H]1CC[C@H](CCN2CCN(c3nccc4c3CCO4)CC2)CC1)c1ccc(F)cc1,221
7,NS(=O)(=O)NCC1COc2ccccc2O1 (configuration not stated),97.5 to 98.5
8,Brc1ccc2nc(-c3ccccc3)cn2c1,192 to 194
9,O=C1NCCNC1c1cn(Cc2ccc(Cl)cc2)c2ccccc12 (configuration not stated),195
10,CCOC(=O)Cc1nc(-c2ccc(Cl)cc2)oc1CC(C)C,56 to 57
11,O=C(Nc1ccc(C(=O)N2CCCc3ccccc32)cc1)c1cccc(O)c1,217 to 218
12,Cc1c(NC(=O)NC(C)(C)CO)c(C)c2c(c1-c1ccccc1)OCC2c1ccc(C(C)C)cc1 (configuration not stated),181 to 182
13,CCCn1c(OCC2CC2(Cl)Cl)nc2sc(Cl)cc2c1=O (configuration not stated),94 to 96
14,Cn1c(=O)n(C(=O)OC(C)(C)C)c2ccc(Br)cc21,98 to 99
15,Nc1ccc(Oc2ccc(C34CC5CC(C3)CC(c3ccc(Oc6ccc(N)c(O)c6)cc3)(C5)C4)cc2)cc1O,166 to 169
16,CN1CCN(c2ccc(F)cc2C=C2CCCN(c3ccc(Cl)c(Cl)c3)C2=O)CC1,161 to 162
17,CC(C)c1nc(C(N)=O)c2n1-c1ccc(Cl)cc1C(c1ccccc1Cl)=NC2,328 to 330
18,CCCCCCC(C(=O)O)n1cnc(NC(=O)C2(O)c3ccccc3-c3ccccc32)c1 (configuration not stated),128
19,Cc1c(C)c2c(c(C)c1O)C(c1ccc(N3CCN(C)CC3)cc1)C(C)(C)O2 (configuration not stated),159 to 161
20,Cc1ccc(N2C(=O)NC(=O)C23CCNCC3)cc1,128 to 130
21,CC(C)c1ccc(NC(=O)C(F)(F)F)cc1,98
22,CC(Nc1ccc(Oc2ccc(O)cc2)cc1)C(=O)O (configuration not stated),188
23,CCNC(C)CN1CCc2c(c(=O)oc3ccccc23)C1 (configuration not stated),104 to 105

row,SMILES,melting point [°C]
1,CN1CCC(O)(C#N)CC1,130 to 133
2,CC(C)(C)c1ccc2sc3cc(C#N)ccc3c(=O)c2c1,181 to 184
3,CCCCCSc1c[nH]nc1C1=CCCN(C)C1,100 to 101
4,CC(C)C1(C)CC(=O)CC(C)(C)N1OC(C)(C)C#N (configuration not stated),32 to 44
5,CN1CCc2c(-c3ccc(Cl)cc3)ccc([N+](=O)[O-])c2C1,162 to 163
6,CC(C)NS(=O)(=O)Cc1ccc([N+](=O)[O-])cc1,146 to 147
7,Nc1cccc(-c2ccc(CCN3CCC4(CCCC4)CC3)cc2)n1,130 to 132
8,O=C(NS(=O)(=O)C=Cc1ccccc1)N1CCC(CCCc2ccccc2)CC1,125 to 127
9,CC(=O)Nc1ccccc1N(CC(=O)OC(C)(C)C)C(=O)CNC(=O)Nc1cccc(C)c1,185
10,Cc1ccc(-c2ccc(Cl)c(C(=O)NCC34CC5CC(CC(C5)C3)C4)c2)nc1C(=O)O,180 to 185
11,N#CCc1ccc(C(=O)c2ccc(Cl)cc2)n1Cc1ccccc1,104 to 106
12,c1ccc2c3c([nH]c2c1)CNCC3,190 to 191
13,C=CCc1cc2c(c(CC=C)c1O)CCC(=O)N2Cc1ccc(C(=O)O)cc1,242 to 246
14,CSc1ccc(-c2ccccc2)c(NC(N)=S)c1,166 to 167
15,O=C(Nc1ncnc2c1ncn2C[C@@H]1O[C@H](CO)[C@@H](O)[C@H]1O)c1ccccc1,85 to 90
16,O=S(=O)(/C=C\S(=O)(=O)c1ccccc1)c1ccccc1,100 to 101
17,CN1CCN(c2ccc(Nc3nc(N)c(C(=O)c4c(Cl)cc(C(F)(F)F)cc4Cl)s3)cc2)CC1,239 to 240
18,CCS(=O)(=O)N[C@@H]1CCCC[C@H]1OCC(=O)O (relative stereo),120 to 122
19,Cn1c(=O)c2c(ncn2CCCN2CCC(NC(=O)c3ccc(N)cc3)CC2)n(C)c1=O,203 to 205
20,CC(C)NC1C(n2cccn2)=NNN1S (configuration not stated),80 to 85
21,CC1=C(Cc2ccc(Cl)cc2)C(=O)C2C=CC=CC2C1=O (configuration not stated),134 to 135
22,COc1cc(COc2cc(N)c(Cl)cc2C(=O)CCCCN2CCC(C)(C)CC2)cc(OC)c1,135 to 136
